In a melting point compilation (Tetko et al.; mined from patent text by program, amines drawn as free bases though some values may be those of a salt) one finds melting point data, which are given here for 87 molecules.

The structures appear in SMILES notation. Where only a bound is given, the exact number is not on record here.

As for `CCOc1cc(-c2c(C(=O)OC)c(C(=O)OC)c(O)c3cc(OC)c(OC)c(OC)c23)ccc1OC`, the melting point (in general, the temperature of the solid-liquid transition) is 158 °C.
As for `CN(O)C(=O)NCCCOc1ccc(-c2ccccc2)cc1`, the figure is 161 to 162 °C.
For `Nc1nc2c(c(N3CCNCC3)n1)SCCC2`, the melting point lay within 176 to 178 °C.
In the case of `Cc1ccc(C)c(N2C(=O)CON(C)C2=S)c1` it was 104 to 106 °C; in that of `Cc1cccc(-c2nc(-c3ccc(F)cc3)sc2-c2ccnc(N)c2)c1`, 160 to 162 °C.
The molecule `COc1ccc(N2CCNC2=O)cc1OC` registered a melting point of 168 °C.
As for `COC(=O)c1cnc(Cl)c(C)n1`, the figure is 49 to 50 °C; as for `CC(=O)OC1CSC(Oc2ccc(-c3cnccc3F)nc2-c2cnccc2F)C(OC(C)=O)C1OC(C)=O` (configuration not stated), 169 °C; as for `Cc1scc2c1N(C(=O)N1CCC(CCCCN3CCCCC3)CC1)c1ccccc1NC2=O`, 209 to 210 °C.
For the molecule `CCCCc1nc2cccc(C(=O)OC)c2n1Cc1ccc(-c2c(C#N)cnc3ccccc23)cc1`, the melting point lay in the range of 103 to 104 °C.
Regarding `Cc1c(C)c2c(c(C)c1OCc1ccccc1)CCC(C)(CN1CCN(CCOc3ccc(C=C4SC(=O)NC4=O)cc3)CC1)O2` (racemic), the melting point lay in the range of 192 to 194 °C.
On to `N#CCCn1nc(-c2ccccc2)ccc1=O`, for which the melting point is 103 to 104 °C.
Regarding `COc1cc(OC)cc(C(NCC(=O)Nc2c(C(C)C)cccc2C(C)C)c2ccccc2C)c1` (configuration not stated), the melting point lay in the range of 138 to 139 °C.
For the molecule `COC(=O)c1cc(-c2ccccc2)c(=O)n2c1-c1sccc1S(=O)(=O)C=C2`, the melting point is 241 to 243 °C.
In the case of `CCOC(=O)c1ncn2c1[C@@H]1CCN1C(=O)c1c-2ccc(F)c1Cl`, the melting point was in the range of 161 to 163 °C.
With `C[C@@H]1O[C@@]1(Cn1cncn1)c1ccc(F)cc1F` (racemic), the melting point was in the range of 66 to 68 °C.
In the case of `ClC12CCCC(C1)C1CCC2C1` (configuration not stated) it was 68 to 69 °C.
With `O=C(O)COc1cccc2c1CCc1sc(SCc3ccc(-c4ccccc4)cc3)nc1-2`, the melting point fell in the range of 198 to 200 °C.
`C=C(C)COc1ccc(Br)cc1CN(CC)c1ccc(-c2nnco2)nn1` showed a melting point of 90 to 92 °C.
On to `COc1cc(OCc2ccccn2)ccc1/C=C/c1cc(/C=C/c2ccc3ccn(C)c3c2)[nH]n1`, for which the melting point fell in the range of 172 to 174 °C.
Turning to `O=C(Nc1ccc(Cl)cc1)C1=C(C(=O)Nc2cc(OC3CCCC3)c(Cl)cc2F)CCCC1`, the melting point was 221 to 222 °C.
As for `O=c1[nH]nc(CN2CC[C@H](OCc3cc(C(F)(F)F)cc(C(F)(F)F)c3)[C@H](c3ccccc3)C2)[nH]1` (relative stereo), the figure is 89 to 91 °C; as for `COC(=O)CC[C@H](NC(=O)OC(C)(C)C)C(=O)O`, 74 to 77 °C.
`CS(=O)c1ncc(Br)cn1` (configuration not stated): the melting point came out at 90 °C.
The molecule `Cc1nn(C(=O)NCC2CC2(Cl)Cl)c(=O)n1N` (configuration not stated) yielded a melting point of 149 °C.
In the case of `O=c1[nH]c2cc(F)c(NCC3COc4ccccc4C3)cc2o1` (configuration not stated) it was 223 to 224 °C; in that of `C=CCOC(=O)N[C@H]1CC(=O)O[C@H]1OCc1ccccc1`, 108 to 110 °C.
Take `CCOCCOCCn1ccc2c3c(c(-c4ccccc4Cl)cc21)C(=O)NC3=O`: the melting point was 173 °C.
In the case of `OC(Cn1cncn1)(Cn1cnc(C=Cc2ccc(C(F)(F)F)cc2)n1)c1ccc(OC(F)(F)F)cc1` (configuration not stated) it was 193 to 195 °C; in that of `COc1ccc(C(=O)c2cccc(N)c2)cc1OC`, 157 to 175 °C.
In the case of `CCCCN(CCCC)c1ccc(C=Cc2ccc(C=CC3=C(C#N)C(=C(C#N)C#N)OC3(C)C)s2)c(O[Si](c2ccccc2)(c2ccccc2)C(C)(C)C)c1`, the melting point lay within 218 to 219 °C.
In turn, `C#CC(C)(C)c1cc(NC(=O)NC)no1` returned a melting point of 99 to 100 °C.
`Cc1cccc(Oc2ccc3ccc(N)nc3n2)c1` came in with a melting point of 100 °C.
In turn, `NS(=O)(=O)c1ccc(-c2cnn(Cc3ccc(F)c(F)c3)c(=O)c2-c2ccc(F)cc2)cc1` yielded a melting point of 253 to 255 °C.
The molecule `c1cc(OCCCCc2nnn[nH]2)cc(OCc2ccc3ccccc3n2)c1` returned a melting point of 120 to 130 °C.
In turn, `O=C(CC(=O)C(F)(F)F)Nc1cc(-c2ccccc2Br)n[nH]1` gave a melting point of 128 to 131 °C.
For the molecule `CC1CN(S(=O)(=O)c2cc(C#N)ccc2Sc2cc(Cl)ccc2Cl)CC(C)N1` (configuration not stated), the melting point was in the range of 160 to 190 °C.
As to `CCC1(CC)C(=O)ON(C(=O)c2cc(OC)c(OC)c(OC)c2)C1=O`, the melting point was in the range of 103 to 106 °C.
In turn, `O=C(c1ccccc1I)N1CCOCC1` yielded a melting point of 86 to 87 °C.
As for `Nc1cc(Cl)cc(Cc2cc(Cl)cc(N)c2O)c1O`, the figure is 212 to 215 °C.
`CN1C(=O)CCCc2cc(Nc3ncc(Cl)c(Nc4ccc(N5CCCCC5)cc4C(N)=O)n3)ccc21`: the melting point fell in the range of 295 to 297 °C.
In the case of `C#CCOc1ccc(C=O)cc1OC` it was 95 °C.
As to `CC(=O)Oc1cc(S(=O)(=O)c2ccccc2)ccc1OCc1ccccc1`, the melting point fell in the range of 107 to 111 °C.
In turn, `Cc1nccn1-c1cc(C#N)cc(C(F)(F)F)c1` gave a melting point of 132 to 134 °C.
As for `COCC(=S)Nc1c(Cl)c(Cl)cc2nc(OC)c(OC)nc12`, the melting point lay in the range of 198 to 200 °C.
In the case of `O=C1CCn2c1ccc2C(=O)c1ccc(Cl)cc1` it was 165 to 166 °C.
`COc1ccc(CF)c(CN(C(C)=O)c2cc(F)ccc2Oc2ccccc2)c1` had a melting point of 71 to 72 °C.
As for `CCCSc1ccc(NS(=O)(=O)c2cccs2)c2[nH]c(C(=O)OCC)cc12`, the figure is 150 to 151 °C; as for `Cc1c(C(=O)Nc2ccc(N3CCC(N4CCOCC4)CC3)c([N+](=O)[O-])c2)cnn1-c1ccc(C(F)(F)F)cc1`, 225 to 230 °C.
`Oc1ccc(Oc2cncnc2)cc1` registered a melting point of 158 °C.
Turning to `CC1(C)CCC2CCCCC2C1NC=NC#N` (configuration not stated), the melting point came to 228 °C.
`CC(C)(C)c1ccc2c(c1)OCC(NNc1ncnc3c1ncn3C1OC(CO)C(O)C1O)C2` (configuration not stated) displayed a melting point of 88 to 90 °C.
`CCCCCCCCCCCCOc1ccc(C2=C(O)CSC2=O)cc1`: the melting point lay in the range of 173 to 175 °C.
For the molecule `COc1ccc(C(=O)Nc2ccc(C(=O)O)cc2)cc1C1(C)CCCCC1`, the melting point was 230 to 231 °C.
Take `O=C(NCc1cccc2nc(N[C@@H]3CCc4ccccc43)ccc12)c1ccc(F)cc1`: the melting point was 145 °C.
In the case of `Cc1ccc2c(c1)oc1c(C(=O)NC3CCCCC3)nn(-c3ccc(Cl)cc3Cl)c12` it was 140 to 142 °C; in that of `CCOC(=O)C1=C(C)Nc2cc(=O)[nH]n2C1c1cccc(Cl)c1Cl` (configuration not stated), 213 to 218 °C.
`Cc1nn(-c2cc(Oc3ccc([N+](=O)[O-])cc3Cl)c(Cl)cc2Cl)c(=O)n1C(F)F` registered a melting point of 135 to 136 °C.
`CNC(=O)CCCc1cncc2ccc(OC)cc12` showed a melting point of 117 to 119 °C.
`CCC(=O)c1cc2ccccc2cc1C(=O)O` registered a melting point of 147 °C.
`COc1ccc(-c2ccc(C(C)O)cc2)cc1` (single isomer, unassigned; (+)) came in with a melting point of 132 to 133 °C.
The molecule `CC(C)NC1=NS(=O)(=O)c2ccc(C(C)C)cc2N1` returned a melting point of 237 to 239 °C.
In the case of `COC(=O)C1CCC2C3CCC4CC(O)C(OC)CC4(C)C3C(NC3CCCCC3)CC12C` (configuration not stated) it was 141 to 143 °C; in that of `CC(C)(C)c1ccc(S(=O)(=O)N2c3ccccc3C[C@H]2C(=O)NCc2ccc(N)cc2)cc1`, 83 to 87 °C; in that of `O=C(O)C(=O)CC(=O)c1cn(Cc2ccc3ccccc3n2)c2ccccc2c1=O`, over 300 °C.
On to `CCCC[C@@]1(O)CCC[C@@]2(C)CC[C@@H]3C[C@@]21OC3(C)C`, for which the melting point fell in the range of 90 to 92 °C.
Consider `COC(=O)C1=Cc2cccc(C(F)F)c2OCC1`, for which the melting point was 97 to 99 °C.
As to `O=c1[nH]c2ccsc2c(=O)n1CCN1CCN(c2ccccc2)CC1`, the melting point was in the range of 215 to 217 °C.
In turn, `C=CCNc1nc(NC(C)CC)c2scc(C)c2n1` (configuration not stated) displayed a melting point of 91 to 92 °C.
In turn, `CCOC(=O)c1cnn(-c2ccc(OCC(C)C)c(C#N)c2)c1` returned a melting point of 138 to 139 °C.
As for `COc1cc2c(cc1OC)N(C(=O)CCSC(C)=O)C(C(=O)O)CC2` (configuration not stated), the melting point was 104 to 107 °C.
`COC(=O)c1cc(Oc2ccc(F)cc2F)ncc1[N+](=O)[O-]` came in with a melting point of 90.2 to 91.4 °C.
On to `O=C(c1ccc2c(c1)[C@@H](O)[C@H](Br)CCO2)c1ccccc1C(F)(F)F` (relative stereo), for which the melting point was in the range of 176 to 179 °C.
As for `O=C(O)CCC(=O)c1cc(Br)cc(Br)c1`, the figure is 137 to 138 °C; as for `Cc1cccc(NC(=O)NC2N=C(C3CC3)c3cccc(C)c3N(CC(=O)C3CCCCC3)C2=O)c1` (configuration not stated), 144 °C; as for `CCc1nnc(N2CCN(c3ccc(N4CC(CNC(C)=O)OC4=O)cc3F)CC2)s1` (configuration not stated), 237 to 238 °C.
In the case of `COc1cc(Nc2nccc(NCc3ccccc3)n2)cc(OC)c1OC` it was 135 to 136 °C; in that of `Cc1c(C)c(S(=O)(=O)C[N+](=O)[O-])c(C)c2c1OC(C)(C)CC2`, 98 to 100 °C.
In turn, `COc1cccc2c1C(C)C(=O)N2` (configuration not stated) gave a melting point of 128 to 130 °C.
`N#CNC(=NCC(O)c1cccc(O)c1)NCCSCc1csc(NC(=N)N)n1` (configuration not stated) showed a melting point of 162 to 164 °C.
`COCCOCOc1ccc2cc(C(=O)CNCc3cccc(-c4ccc(Nc5ccccc5C(=O)O)cc4)c3)ccc2c1` yielded a melting point of 72 °C.
The molecule `CCOC(=O)/C(=N\OC1CCCC1)c1csc(N)n1` returned a melting point of 136 to 138 °C.
Consider `CCOP(=O)(/C=C/c1cn(-c2ccccc2)nc1OCc1ccc(OCc2nc(-c3ccc(C(N)=O)cc3)oc2C)c(OC)c1)OCC`, for which the melting point is 146 to 148 °C.
Turning to `CCCn1cnc2c1c1nnc(-c3ccncc3)n1c(=O)n2CCC`, the melting point fell in the range of 194 to 199 °C.
`CS(=O)(=O)c1ccc(-c2cnn(Cc3ccccc3)c(=O)c2Cl)cc1` displayed a melting point of 166 to 167 °C.
In the case of `CCOC(=O)COc1ccc2ncnc(Nc3ccc(F)c(Cl)c3)c2c1` it was 161 to 163 °C; in that of `COC(=O)c1ccc(N2CCNC2=O)cc1`, over 200 °C.
